Results as given in patent publication US10450549B2, “Aryloxyphenoxypropionate tolerance in turfrgass species and use of AAD1 as a selectable marker” (Dow AgroSciences, LLC, priority 2004, dated 2019).

Key:
AAD1 (v1) = target: T1, AAD1 (v1) (Sphingobium herbicidovorans, UniProt Q8KSC8); assay: Colorimetric phenol detection assay of AAD1 (v1) activity (purified enzyme or E. coli extract); assay type: biochemical
T1 construct: made in house; host or cells: E. coli BL-21 Star (DE3), plasmid pDAB3203

wt ARBTH = assay: In vitro plate test of herbicide cross resistance: wild-type Arabidopsis; assay type: in vivo, Arabidopsis thaliana; settings: 7 days
Description: (§1) The ability of AAD1 (v3) to provide resistance to other aryloxyphenoxyalkanoate herbicides in transgenic Arabidopsis was determined using a modified in vitro plate assay. Seeds from wild-type Arabidopsis thaliana as well as Arabidopsis thaliana containing the plant optimized AAD1 (v3) gene (T4 homozygous plants id=PAAD1.315.064) were sterilized by agitating for 10 min in a 50% bleach solution. These seeds were then rinsed four times with sterile water to remove the bleach.
(§2) Dose response assays utilized a nutrient media (see below) supplemented with various rates of test compounds. The test compounds were added to the heated media (55° C.) as concentrated solutions in DMSO. Control wells had the appropriate amount of DMSO without any additional compound. The final concentration of DMSO never exceeded 1% (v/v). After thorough mixing, a 6 mL aliquot of the warm media containing the appropriate concentration of compound was added to each well of a 6-well, flat bottom, polystyrene tissue culture tray (Falcon 353046, Becton Dickson and Company, Franklin Lakes, N.J.). After the media solidified, approximately 20 to 30 Arabidopsis seeds were applied on top of the solidified media and the remaining 2 mL of media was poured over the seeds. The plates were lightly agitated to disperse the seeds, covered and allowed to cool until the media had completely solidified. The plates were incubated for 7 days at 25° C. under continual fluorescent lighting (75 μE m^−2 s^−1). Nutrient Media Composition was as described in Example 2.2 and in Somerville and Orgen (1982).
(§3) Assessment of Growth Reduction. The apical portion of the Arabidopsis plants grown in the treated media was assessed visually relative to the apical portion of the plants grown in the media containing only DMSO. Values were recorded as % growth reduction. Assessments of root growth inhibition of the Arabidopsis plants grown in the treated media were achieved by carefully extracting the plants from the media and measuring the length of the root. These root lengths were then compared to the root length of the control plants to determine a % growth reduction. A minimum of five plants were assessed for each treatment. The values recorded are an average of all the plants assessed. The calculated concentration to reach 50% inhibition effect (I50) were determined for both root and shoots of wildtype and AAD1-transformed Arabidopsis. The ratios of resistant to sensitive biotypes are included in Table 19. A ratio>2 for both root and shoot measurements generally signifies significant resistance. The higher the ratio, the greater the level of resistance. […] The broad phenoxy auxin resistance is the first reported in planta.

PAAD1.315.064 ARBTH = assay: In vitro plate test of herbicide cross resistance: homozygous T4 AAD1 (v3) Arabidopsis; assay type: in vivo, Arabidopsis thaliana
Description: as §1, §2, §3

AAD1 (v3) event lines = assay: Field tolerance of pDAB3404 T1 corn to quizalofop and 2,4-D: AAD1 (v3) events; assay type: in vivo; settings: 1120 g ae/ha
Excerpt: (§4) Two field trials were established at field stations in Hawaii and Indiana. […] The hybrid Hi-II×5XH571 is of the same parentage as the AAD1 (v3) event lines. The hybrid Croplan 585SR is a sethoxydim resistant line.
(§5) The experimental design was a split-plot with four replications. The main plot was herbicide treatment and the sub-plot was AAD1 (v3) event or comparison hybrid. Plots were one row by 3.7 meters with approximately twenty-five seeds planted in each row. For AAD1 events, seeds from a different lineage within the event were planted in each replicate.
(§6) Glufosinate at 560 g ai/ha was applied to AAD1 (v3) plots at the V2 stage to eliminate non-transformed plants. […] Treatments were applied using backpack broadcast boom equipment delivering 187 L/ha carrier volume at 130-200 kpa pressure.
(§7) Quizalofop treated plots were visually assessed for crop injury at one and three weeks after application (WAA) using a 0-100% scale, where 0 equals no injury and 100 equals complete death.

Non-transformed hybrids = assay: Field tolerance to quizalofop and 2,4-D: non-transformed hybrids; assay type: in vivo, corn; settings: 1120 g ae/ha
Excerpt: as §4, §5, §6, §7

[1] = resistant to sensitive biotype, >2 signifies resistance

T1 sequence (Q8KSC8 whole entry): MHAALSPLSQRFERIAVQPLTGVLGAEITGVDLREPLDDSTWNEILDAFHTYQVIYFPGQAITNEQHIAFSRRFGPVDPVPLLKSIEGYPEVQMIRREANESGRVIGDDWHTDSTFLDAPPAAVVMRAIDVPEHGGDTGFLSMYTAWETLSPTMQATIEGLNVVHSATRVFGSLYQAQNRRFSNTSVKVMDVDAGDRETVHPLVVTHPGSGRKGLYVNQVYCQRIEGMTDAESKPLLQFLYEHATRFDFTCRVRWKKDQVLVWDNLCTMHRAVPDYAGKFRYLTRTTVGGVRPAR

## Cc1cc(Cl)ccc1OCC(=O)O [MCPA]
AAD1 (v1); 1 mM, 27 μg crude recombinant AAD1 (v1) per assay
  rate of product formation relative to 2,4-D: 55%
AAD1 (v1); Table 8, 1 mM, 27 μg crude recombinant AAD1 (v1) extract from E. coli
  A510: 0.097
AAD1 (v1); Table 8, relative to 2,4-D, crude AAD1 (v1) extract
  % 2,4-D: 55%
Wt ARBTH; root
  wt ARBTH root 150: 0.01 ppm
Wt ARBTH; shoot
  wt ARBTH shoot 150: 0.2 ppm
PAAD1.315.064 ARBTH; [1]
  root ratio: 3
  shoot ratio: 5
PAAD1.315.064 ARBTH; root, 7 days
  PAAD1.315.064 ARBTH root 150: 0.03 ppm
PAAD1.315.064 ARBTH; shoot, 7 days
  PAAD1.315.064 T3 ARBTH shoot 150: 1 ppm

## CNC.O=C(O)COc1ccc(Cl)cc1Cl [2,4-D amine]
AAD1 (v3) event lines; HI, 3404.001
  %Leaning 2 DAA (0-100 scale): 5%
  Braceroot Deformation 3-4 WAA (0-10 scale): 2
AAD1 (v3) event lines; HI, 3404.006
  %Leaning 2 DAA (0-100 scale): 0%
  Braceroot Deformation 3-4 WAA (0-10 scale): 0
AAD1 (v3) event lines; HI, 3404.013
  %Leaning 2 DAA (0-100 scale): 0%
  Braceroot Deformation 3-4 WAA (0-10 scale): 0
AAD1 (v3) event lines; HI, 3404.017
  %Leaning 2 DAA (0-100 scale): 0%
  Braceroot Deformation 3-4 WAA (0-10 scale): 0
AAD1 (v3) event lines; HI, 3404.020
  %Leaning 2 DAA (0-100 scale): 0%
  Braceroot Deformation 3-4 WAA (0-10 scale): 0
AAD1 (v3) event lines; HI, 3404.022
  %Leaning 2 DAA (0-100 scale): 0%
  Braceroot Deformation 3-4 WAA (0-10 scale): 0
AAD1 (v3) event lines; HI, 3404.025
  %Leaning 2 DAA (0-100 scale): 0%
  Braceroot Deformation 3-4 WAA (0-10 scale): 0
AAD1 (v3) event lines; HI, 3404.027
  %Leaning 2 DAA (0-100 scale): 0%
  Braceroot Deformation 3-4 WAA (0-10 scale): 0
AAD1 (v3) event lines; HI, 3404.031
  %Leaning 2 DAA (0-100 scale): 0%
  Braceroot Deformation 3-4 WAA (0-10 scale): 0
AAD1 (v3) event lines; HI, 3404.033
  %Leaning 2 DAA (0-100 scale): 0%
  Braceroot Deformation 3-4 WAA (0-10 scale): 0
AAD1 (v3) event lines; HI, 3404.036
  %Leaning 2 DAA (0-100 scale): 0%
  Braceroot Deformation 3-4 WAA (0-10 scale): 0
AAD1 (v3) event lines; HI, 3404.044
  %Leaning 2 DAA (0-100 scale): 0%
  Braceroot Deformation 3-4 WAA (0-10 scale): 1
AAD1 (v3) event lines; HI, 3404.050
  %Leaning 2 DAA (0-100 scale): 1%
  Braceroot Deformation 3-4 WAA (0-10 scale): 1
AAD1 (v3) event lines; HI, 3404.053
  %Leaning 2 DAA (0-100 scale): 0%
  Braceroot Deformation 3-4 WAA (0-10 scale): 0
AAD1 (v3) event lines; HI, 3404.074
  %Leaning 2 DAA (0-100 scale): 0%
  Braceroot Deformation 3-4 WAA (0-10 scale): 0
AAD1 (v3) event lines; HI, 3404.082
  %Leaning 2 DAA (0-100 scale): 0%
  Braceroot Deformation 3-4 WAA (0-10 scale): 1
AAD1 (v3) event lines; IN, 3404.001
  %Leaning 2 DAA (0-100 scale): 0%
  Braceroot Deformation 3-4 WAA (0-10 scale): 1
AAD1 (v3) event lines; IN, 3404.006
  %Leaning 2 DAA (0-100 scale): 0%
  Braceroot Deformation 3-4 WAA (0-10 scale): 0
AAD1 (v3) event lines; IN, 3404.013
  %Leaning 2 DAA (0-100 scale): 0%
  Braceroot Deformation 3-4 WAA (0-10 scale): 0
AAD1 (v3) event lines; IN, 3404.017
  %Leaning 2 DAA (0-100 scale): 1%
  Braceroot Deformation 3-4 WAA (0-10 scale): 0
AAD1 (v3) event lines; IN, 3404.020
  %Leaning 2 DAA (0-100 scale): 0%
  Braceroot Deformation 3-4 WAA (0-10 scale): 0
AAD1 (v3) event lines; IN, 3404.022
  %Leaning 2 DAA (0-100 scale): 1%
  Braceroot Deformation 3-4 WAA (0-10 scale): 0
AAD1 (v3) event lines; IN, 3404.025
  %Leaning 2 DAA (0-100 scale): 0%
  Braceroot Deformation 3-4 WAA (0-10 scale): 0
AAD1 (v3) event lines; IN, 3404.027
  %Leaning 2 DAA (0-100 scale): 3%
  Braceroot Deformation 3-4 WAA (0-10 scale): 0
AAD1 (v3) event lines; IN, 3404.031
  %Leaning 2 DAA (0-100 scale): 1%
  Braceroot Deformation 3-4 WAA (0-10 scale): 0
AAD1 (v3) event lines; IN, 3404.033
  %Leaning 2 DAA (0-100 scale): 0%
  Braceroot Deformation 3-4 WAA (0-10 scale): 0
AAD1 (v3) event lines; IN, 3404.036
  %Leaning 2 DAA (0-100 scale): 0%
  Braceroot Deformation 3-4 WAA (0-10 scale): 0
AAD1 (v3) event lines; IN, 3404.044
  %Leaning 2 DAA (0-100 scale): 1%
  Braceroot Deformation 3-4 WAA (0-10 scale): 0
AAD1 (v3) event lines; IN, 3404.050
  %Leaning 2 DAA (0-100 scale): 0%
  Braceroot Deformation 3-4 WAA (0-10 scale): 0
AAD1 (v3) event lines; IN, 3404.053
  %Leaning 2 DAA (0-100 scale): 1%
  Braceroot Deformation 3-4 WAA (0-10 scale): 0
AAD1 (v3) event lines; IN, 3404.074
  %Leaning 2 DAA (0-100 scale): 0%
  Braceroot Deformation 3-4 WAA (0-10 scale): 0
AAD1 (v3) event lines; IN, 3404.082
  %Leaning 2 DAA (0-100 scale): 0%
  Braceroot Deformation 3-4 WAA (0-10 scale): 0
Non-transformed hybrids; HI, CROPLAN 585SR
  %Leaning 2 DAA (0-100 scale): 33%
  Braceroot Deformation 3-4 WAA (0-10 scale): 9
Non-transformed hybrids; HI, DK493
  %Leaning 2 DAA (0-100 scale): 23%
  Braceroot Deformation 3-4 WAA (0-10 scale): 9
Non-transformed hybrids; HI, HI-II X 5XH571
  %Leaning 2 DAA (0-100 scale): 34%
  Braceroot Deformation 3-4 WAA (0-10 scale): 9
Non-transformed hybrids; IN, CROPLAN 585SR
  %Leaning 2 DAA (0-100 scale): 11%
  Braceroot Deformation 3-4 WAA (0-10 scale): 9
Non-transformed hybrids; IN, DK493
  %Leaning 2 DAA (0-100 scale): 20%
  Braceroot Deformation 3-4 WAA (0-10 scale): 8
Non-transformed hybrids; IN, HI-II X 5XH571
  %Leaning 2 DAA (0-100 scale): 13%
  Braceroot Deformation 3-4 WAA (0-10 scale): 7
